pEC50: −log10 of the molar value. Converted amounts (≈) assume the structure as drawn. Read-outs that look alike come from different tables or passages of the source. No end group written: not given here.
Key:
[1] = system: A. actinomycetemcomitans Y4; details: for pEC50: 24 h
[2] = system: K12 E. coli (ATCC #25404)
F. novicida = details: 24 h
F. novicida biofilm = type: cell-based, F. novicida (F. tularensis novicida)
P. aeruginosa biofilms = details: Overhage 2008; cited from earlier work
A. actinomycetemcomitans [3] = details: cited from earlier work
A. actinomycetemcomitans [4] = experiment: microbe, parasite or virus in culture; type: cell-based; details: for EC50: Aggregatibacter actinomycetemcomitans
P. aeruginosa = P. aeruginosa (ATCC 27853); cited from earlier work
E. coli (ATCC 25922) = details: cited from earlier work
[5] = read-out: EC50 uM, E. coli, 3 h incubation, CFU enumeration

Compound: GLRKRLRKFRNKIKEKLKKIGQKIQGLLPKLAPRTDY [CAP-18]
- pEC50 [1]: 5.80

Compound: KRAKKFFKKLK-NH2 [ATRA-1A]
- EC50 [2, 5]: 0.659 µM

Compound: CC[C@H](C)[C@H](NC(=O)[C@H](CCCCN)NC(=O)[C@H](CCC(=O)O)NC(=O)[C@H](CCCCN)NC(=O)[C@H](CO)NC(=O)[C@H](CCCCN)NC(=O)[C@H](CCCNC(=N)N)NC(=O)[C@H](Cc1ccccc1)NC(=O)[C@H](Cc1ccccc1)NC(=O)[C@H](CC(=O)O)NC(=O)CNC(=O)[C@H](CC(C)C)NC(=O)[C@@H](N)CC(C)C)C(=O)NCC(=O)N[C@@H](CCCCN)C(=O)N[C@@H](CCC(=O)O)C(=O)N[C@@H](Cc1ccccc1)C(=O)N[C@@H](CCCCN)C(=O)N[C@@H](CCCNC(=N)N)C(=O)N[C@H](C(=O)N[C@H](C(=O)N[C@@H](CCC(N)=O)C(=O)N[C@@H](CCCNC(=N)N)C(=O)N[C@H](C(=O)N[C@@H](CCCCN)C(=O)N[C@@H](CC(=O)O)C(=O)N[C@@H](Cc1ccccc1)C(=O)N[C@@H](CC(C)C)C(=O)N[C@@H](CCCNC(=N)N)C(=O)N[C@@H](CC(N)=O)C(=O)N[C@@H](CC(C)C)C(=O)N[C@H](C(=O)N1CCC[C@H]1C(=O)N[C@@H](CCCNC(=N)N)C(=O)N[C@H](C(=O)N[C@@H](CCC(=O)O)C(=O)N[C@@H](CO)C(=O)O)[C@@H](C)O)C(C)C)[C@@H](C)CC)C(C)C)[C@@H](C)CC [LL-37]
- EC50 ug/mL [1]: 6.24 µg/mL (≈ 1.39 µM)
- EC50 [1]: 6.224 µg/mL
- EC50 (μg/mL) [1]: 6.244 µg/mL (≈ 1.39 µM)
- pEC50 [1]: 5.86
- EC50 ([2]; E. coli K12): 0.519 µg/mL
- EC50 ([2]; E. coli, 3 h incubation, CFU enumeration): 0.514 µg/mL
- EC50 [2, 5]: 0.114 µM
- MIC (F. novicida): greater than 250 μg/ml
- concentration with significant inhibition of biofilm formation (F. novicida biofilm): ≤ 3.8 ng/mL
- inhibition of growth (F. novicida biofilm): no inhibition of growth
- concentration inhibiting formation of biofilms (P. aeruginosa biofilms): 0.05 µg/mL
- ED99 (A. actinomycetemcomitans [3]): 8.2 µg/mL
- MBC (A. actinomycetemcomitans [3]): above 100 μg/mL

Compound: CC1(C)S[C@@H]2[C@H](NC(=O)[C@H](N)c3ccccc3)C(=O)N2[C@H]1C(=O)O [ampicillin]
- EC50 (A. actinomycetemcomitans [4]): 75 µg/mL
- EC50 (A. actinomycetemcomitans [4]; read-out: EC50 in μM): 215 µM

Compound: CC1(C)S[C@@H]2[C@H](NC(=O)[C@H](N)c3ccc(O)cc3)C(=O)N2[C@H]1C(=O)O [amoxicillin]
- EC50 (A. actinomycetemcomitans [4]): 29.6 µg/mL
- EC50 (A. actinomycetemcomitans [4]; read-out: EC50 in μM): 80.9 µM

Compound: hBD-4: antimicrobial listed in Table 6, not further described (EFELDRICGYGTARCRKKCRSQEYRIGRCPNTYACCLRKWDESLLNRTKP; UniProt Q8WTQ1 23-72, looked up)
- EC50 (μg/mL) [1]: ≥ 100 µg/mL
- EC50 ([1]; read-out: EC50 in μM): > 22.9 µM

Compound: GGLRSLGRKILRAWKKYGPIIVPIIRIG [BMAP-28]
- pEC50 [1]: 6.67

Compound: CCC[C@@H]1C[C@@H](C(=O)N[C@@H]([C@H]2O[C@H](SC)[C@H](O)[C@@H](O)[C@H]2O)[C@H](C)Cl)N(C)C1 [clindamycin]
- EC50 (A. actinomycetemcomitans [4]): > 250 µg/mL
- EC50 (A. actinomycetemcomitans [4]; read-out: EC50 in μM): > 542 µM

Compound: KRFKKFFKKPK-NH2 [ATRA-1P]
- EC50 [2, 5]: 4.76 µM

Compound: gentamicin
- EC50 (μg/mL) (A. actinomycetemcomitans [4]): 1.597 µg/mL
- pEC50 (A. actinomycetemcomitans [4]; read-out: EC50): 5.48

Compound: Cc1ncc([N+](=O)[O-])n1CCO [metronidazole]
- EC50 (A. actinomycetemcomitans [4]): 19.5 µg/mL
- EC50 (A. actinomycetemcomitans [4]; read-out: EC50 in μM): 114 µM

Compound: RLKELITTGGQKIGEKIRRIGQRIKDFFKNLQPREEKS [K9CATH]
- pEC50 [1]: 6.96

Compound: GLLSRLRDFLSDRGRRLGEKIERIGQKIKDLSEFFQS [PMAP-37]
- MIC (P. aeruginosa): 4 µM
- pEC50 [1]: 5.90
- MIC (E. coli (ATCC 25922)): 1 µM

Compound: CC[C@H]1OC(=O)[C@H](C)[C@@H](O[C@H]2C[C@@](C)(OC)[C@@H](O)[C@H](C)O2)[C@H](C)[C@@H](O[C@@H]2O[C@H](C)C[C@H](N(C)C)[C@H]2O)[C@](C)(O)C[C@@H](C)CN(C)[C@H](C)[C@@H](O)[C@]1(C)O [azithromycin]
- EC50 (A. actinomycetemcomitans [4]): 34.4 µg/mL
- EC50 (A. actinomycetemcomitans [4]; read-out: EC50 in μM): 45.9 µM

Source: patent US20120149631A1 (priority 2009, published 2012)
